# Assay results: patent US20180186814A1, “TRICYCLIC COMPOUND HAVING SULFINYL OR SULFONYL” (Shionogi & Co., Ltd., priority 2015, published 2018)
# Tests used:
# Assay type in all cases: cell-based
# E. cloacae ATCC13047 = assay: MIC by microbroth dilution (CLSI), strain No. 1; conditions: E. cloacae ATCC13047, AmpC, ceftazidime-resistant, cefepime-sensitive, cation-adjusted Mueller-Hinton broth; for MIC: Enterobacter cloacae, read-out: minimum inhibitory concentration (MIC), Strain No. 1
# Description: (§1) The minimum inhibitory concentration (MIC) was measured by the microbroth dilution method in accordance with the procedures recommended by CLSI (Clinical and Laboratory Standards Institute) using 1×10^5 CFU/mL as an inoculum dose and a cation-adjusted Mueller-Hinton broth as a test medium.
# (§2) The strains used are as described in the table below.
# K. pneumoniae SR01358 = assay: MIC by microbroth dilution (CLSI), strain No. 2; conditions: Klebsiella pneumoniae; K. pneumoniae SR01358, KPC-2; KPC-producing strain; cation-adjusted Mueller-Hinton broth; read-out: minimum inhibitory concentration (MIC), Strain No. 2
# Description: as §1, §2
# K. pneumoniae SR01453 = assay: MIC by microbroth dilution (CLSI), strain No. 3; conditions: K. pneumoniae SR01453, NDM-1, MBL-producing strain, carbapenem-resistant, cation-adjusted Mueller-Hinton broth; for MIC: Klebsiella pneumoniae, read-out: minimum inhibitory concentration (MIC), Strain No. 3
# Description: as §1, §2
# K. pneumoniae NCTC13443 = assay: MIC by microbroth dilution (CLSI), strain No. 4; conditions: K. pneumoniae NCTC13443, NDM-1, MBL-producing strain, carbapenem-resistant, cation-adjusted Mueller-Hinton broth; for MIC: Klebsiella pneumoniae, read-out: minimum inhibitory concentration (MIC), Strain No. 4
# Description: as §1, §2
# E. cloacae SR36276 = assay: MIC by microbroth dilution (CLSI), strain No. 5; conditions: E. cloacae SR36276, AmpC, highly AmpC-producing strain, ceftazidime-resistant, cefepime-sensitive, cation-adjusted Mueller-Hinton broth; for MIC: Enterobacter cloacae, read-out: minimum inhibitory concentration (MIC), Strain No. 5
# Description: as §1, §2
SMILES,MIC (E. cloacae ATCC13047) [µg/mL],MIC (K. pneumoniae SR01358) [µg/mL],MIC (K. pneumoniae SR01453) [µg/mL],MIC (K. pneumoniae NCTC13443) [µg/mL],MIC (E. cloacae SR36276) [µg/mL],"minimum inhibitory concentration (MIC), Strain No. 1 (E. cloacae ATCC13047) [µg/mL]","minimum inhibitory concentration (MIC), Strain No. 3 (K. pneumoniae SR01453) [µg/mL]","minimum inhibitory concentration (MIC), Strain No. 4 (K. pneumoniae NCTC13443) [µg/mL]","minimum inhibitory concentration (MIC), Strain No. 5 (E. cloacae SR36276) [µg/mL]"
Nc1nc(/C(=N/OCC(=O)O)C(=O)N[C@@H]2C(=O)N3[C@@H]2[S@@+]([O-])C[C@@H]2CC(=O)O[C@@]23C(=O)O)cs1 [Compound I-001],0.125,0.25,0.063,1,0.063,–,–,–,–
Nc1nc(/C(=N/OCC(=O)O)C(=O)N[C@@H]2C(=O)N3[C@@H]2S(=O)(=O)C[C@@H]2CC(=O)O[C@@]23C(=O)O)cs1 [Compound I-003],0.25,0.5,0.25,4,1,–,–,–,–
C[C@H](O/N=C(\C(=O)N[C@@H]1C(=O)N2[C@@H]1[S@@+]([O-])C[C@@H]1CC(=O)O[C@@]12C(=O)O)c1csc(N)n1)C(=O)O [Compound I-005],0.5,0.5,0.125,1,0.125,–,–,–,–
CC(C)(O/N=C(\C(=O)N[C@@H]1C(=O)N2[C@@H]1[S@@+]([O-])C[C@@H]1CC(=O)O[C@@]12C(=O)[O-])c1csc(N)n1)C(=O)[O-].[Na+].[Na+] [Compound I-007],0.25,0.5,0.5,2,0.25,–,–,–,–
CC[C@H](O/N=C(\C(=O)N[C@@H]1C(=O)N2[C@@H]1[S@@+]([O-])C[C@@H]1CC(=O)O[C@@]12C(=O)O)c1csc(N)n1)C(=O)O [Compound I-009],0.5,–,0.5,4,0.25,–,–,–,–
Nc1nc(/C(=N/OCCF)C(=O)N[C@@H]2C(=O)N3[C@@H]2[S@@+]([O-])C[C@@H]2CC(=O)O[C@@]23C(=O)O)cs1 [Compound I-010],0.25,–,0.25,8,1,–,–,–,–
Nc1nc(/C(=N/OC2(C(=O)[O-])CC2)C(=O)N[C@@H]2C(=O)N3[C@@H]2[S@@+]([O-])C[C@@H]2CC(=O)O[C@@]23C(=O)[O-])cs1.[Na+].[Na+] [Compound I-015],0.125,0.5,0.125,1,0.125,–,–,–,–
CCO/N=C(\C(=O)N[C@@H]1C(=O)N2[C@@H]1[S@@+]([O-])C[C@@H]1CC(=O)O[C@@]12C(=O)O)c1csc(N)n1 [Compound I-019],0.5,–,0.5,8,1,–,–,–,–
CC(C)[C@H](O/N=C(\C(=O)N[C@@H]1C(=O)N2[C@@H]1[S@@+]([O-])C[C@@H]1CC(=O)O[C@@]12C(=O)O)c1csc(N)n1)C(=O)O [Compound I-022],–,–,1,–,0.5,–,–,–,–
CO/N=C(\C(=O)N[C@@H]1C(=O)N2[C@@H]1[S@@+]([O-])C[C@@H]1CC(=O)O[C@@]12C(=O)[O-])c1csc(N)n1.[Na+] [Compound I-023],0.25,1,0.25,4,1,–,–,–,–
Nc1nc(/C(=N/O)C(=O)N[C@@H]2C(=O)N3[C@@H]2[S@@+]([O-])C[C@@H]2CC(=O)O[C@@]23C(=O)O)cs1 [Compound I-024],–,–,2,–,4,–,–,–,–
Nc1nc(/C(=N/O[C@H](CO)C(=O)O)C(=O)N[C@@H]2C(=O)N3[C@@H]2[S@@+]([O-])C[C@@H]2CC(=O)O[C@@]23C(=O)O)cs1 [Compound I-026],0.125,0.5,0.125,1,0.125,–,–,–,–
Nc1nc(/C(=N/O[C@@H](CO)C(=O)O)C(=O)N[C@@H]2C(=O)N3[C@@H]2[S@@+]([O-])C[C@@H]2CC(=O)O[C@@]23C(=O)O)cs1 [Compound I-027],0.063,0.25,0.063,1,≤ 0.031,–,–,–,–
Nc1nc(/C(=N/OCC(=O)O)C(=O)N[C@@H]2C(=O)N3[C@@H]2[SH](O)C[C@@H]2CC(=O)O[C@@]23C(=O)O)c(F)s1 (some centres unmarked) [Compound I-036],–,–,–,–,–,0.5,1,8,1
Nc1nc(/C(=N/OC(F)C(=O)O)C(=O)N[C@@H]2C(=O)N3[C@@H]2[S@@+]([O-])C[C@@H]2CC(=O)O[C@@]23C(=O)O)cs1 (some centres unmarked) [Compound I-037],0.5,1,0.25,8,0.5,–,–,–,–
